Assay results taken from PubChem BioAssay (NCI).
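Five compound concentrations were applied to cells in 96-well plates for 48 hours; endpoints were derived by simple linear interpolation of the resulting dose-response curve. GI50: concentration for 50% inhibition of growth. TGI denotes the concentration required for complete inhibition of growth.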 *1 amine or outer side, *2 acyl side, *3 side chain or, on linkers, in order; H or OH if unused. Where a SMILES comes first, the peptide text is derived from it. Bridges are numbered along the chain shown (N, C = ends). [ ]: non-standard residue; d: D form. X35 = CC[C@H](C)[C@@H](N[*:1])[C@@H](O)CC(=O)O[C@H](C(=O)[C@H](C)C(=O)[*:2])C(C)C; NMeY = CN[C@@H](Cc1ccc(O)cc1)C(=O)O

Legend:
Test in all cases: NCI tumour cell line growth inhibition, 48 h
U251 CNS = tested on: U251 CNS
HS 578T breast = tested on: HS 578T breast
SNB-75 CNS = tested on: SNB-75 CNS
HOP-62 NSCLC = tested on: HOP-62 NSCLC
RXF 393 renal = tested on: RXF 393 renal
A498 renal = tested on: A498 renal
SR leukemia = tested on: SR leukemia
786-0 renal = tested on: 786-0 renal
IGROV1 ovarian = tested on: IGROV1 ovarian
MDA-MB-231 breast = tested on: MDA-MB-231 breast
OVCAR-4 ovarian = tested on: OVCAR-4 ovarian
SF-268 CNS = tested on: SF-268 CNS
OVCAR-5 ovarian = tested on: OVCAR-5 ovarian
SN12C renal = tested on: SN12C renal
UO-31 renal = tested on: UO-31 renal
NCI-H460 lung = tested on: NCI-H460 lung
LOX IMVI melanoma = tested on: LOX IMVI melanoma
MALME-3M melanoma = tested on: MALME-3M melanoma
NCI/ADR-RES ovarian = tested on: NCI/ADR-RES ovarian
NCI-H23 lung = tested on: NCI-H23 lung
MOLT-4 leukemia = tested on: MOLT-4 leukemia
CCRF-CEM leukemia = tested on: CCRF-CEM leukemia
UACC-62 melanoma = tested on: UACC-62 melanoma
K-562 leukemia = tested on: K-562 leukemia
HL-60(TB) leukemia = tested on: HL-60(TB) leukemia
NCI-H522 lung = tested on: NCI-H522 lung
RPMI-8226 leukemia = tested on: RPMI-8226 leukemia
MDA-MB-435 = tested on: MDA-MB-435
HT29 colon = tested on: HT29 colon
ACHN renal = tested on: ACHN renal
OVCAR-3 ovarian = tested on: OVCAR-3 ovarian
OVCAR-8 ovarian = tested on: OVCAR-8 ovarian
EKVX NSCLC = tested on: EKVX NSCLC
SF-539 CNS = tested on: SF-539 CNS
SK-OV-3 ovarian = tested on: SK-OV-3 ovarian
SK-MEL-2 melanoma = tested on: SK-MEL-2 melanoma
UACC-257 melanoma = tested on: UACC-257 melanoma
SW-620 colon = tested on: SW-620 colon
SNB-19 CNS = tested on: SNB-19 CNS
BT-549 breast = tested on: BT-549 breast
HCT-15 colon = tested on: HCT-15 colon
HCC-2998 colon = tested on: HCC-2998 colon
SK-MEL-5 melanoma = tested on: SK-MEL-5 melanoma
M14 melanoma = tested on: M14 melanoma
SF-295 CNS = tested on: SF-295 CNS
A549 NSCLC = tested on: A549 NSCLC
SK-MEL-28 melanoma = tested on: SK-MEL-28 melanoma
MCF7 breast = tested on: MCF7 breast
PC-3 prostate = tested on: PC-3 prostate
KM12 colon = tested on: KM12 colon
TK-10 renal = tested on: TK-10 renal
NCI-H226 lung = tested on: NCI-H226 lung
T-47D breast = tested on: T-47D breast
HCT-116 colon = tested on: HCT-116 colon
DU-145 prostate = tested on: DU-145 prostate
CAKI-1 renal = tested on: CAKI-1 renal
HOP-92 NSCLC = tested on: HOP-92 NSCLC
COLO 205 colon = tested on: COLO 205 colon

CCn1cc(CNc2ccc(C(=O)Nc3cc4cc(OC)c(OC)cc4c(C)n3)cc2)c(C)n1
GI50 (U251 CNS): 3.64 µM | TGI (U251 CNS): > 100 µM | GI50 (HS 578T breast): 5.32 µM | TGI (HS 578T breast): > 100 µM | GI50 (SNB-75 CNS): 4.72 µM | TGI (SNB-75 CNS): > 100 µM | GI50 (HOP-62 NSCLC): 2.71 µM | TGI (HOP-62 NSCLC): 7.18 µM | GI50 (RXF 393 renal): > 100 µM | TGI (RXF 393 renal): > 100 µM | GI50 (A498 renal): 4.29 µM | TGI (A498 renal): > 100 µM | GI50 (SR leukemia): 2.71 µM | TGI (SR leukemia): > 100 µM | GI50 (786-0 renal): 28.6 µM | TGI (786-0 renal): > 100 µM | GI50 (IGROV1 ovarian): > 100 µM | TGI (IGROV1 ovarian): > 100 µM | GI50 (MDA-MB-231 breast): > 100 µM | TGI (MDA-MB-231 breast): > 100 µM | GI50 (OVCAR-4 ovarian): 3.07 µM | TGI (OVCAR-4 ovarian): > 100 µM | GI50 (SF-268 CNS): 33.6 µM | TGI (SF-268 CNS): > 100 µM | GI50 (OVCAR-5 ovarian): > 100 µM | TGI (OVCAR-5 ovarian): > 100 µM

CC[C@H](C)[C@H]1NC(=O)[C@@H](N)[C@@H](C)OC(=O)[C@H](Cc2ccc(OC)cc2)N(C)C(=O)[C@@H]2CCCN2C(=O)[C@H](CC(C)C)NC(=O)[C@@H](C)C(=O)[C@H](C(C)C)OC(=O)C[C@@H]1O (H-T[X35]LP[NMeY](Me); ester 1-C)
TGI (SN12C renal): > 100 µM | TGI (UO-31 renal): 68.7 µM | TGI (U251 CNS): > 100 µM | TGI (NCI-H460 lung): > 100 µM | TGI (LOX IMVI melanoma): > 100 µM | TGI (MALME-3M melanoma): > 100 µM | TGI (NCI/ADR-RES ovarian): > 100 µM | TGI (NCI-H23 lung): > 100 µM | TGI (MOLT-4 leukemia): > 100 µM | TGI (HS 578T breast): > 100 µM | TGI (CCRF-CEM leukemia): > 100 µM | TGI (UACC-62 melanoma): 92.3 µM | TGI (SNB-75 CNS): > 100 µM | TGI (HOP-62 NSCLC): > 100 µM | TGI (RXF 393 renal): > 100 µM | TGI (K-562 leukemia): > 100 µM | TGI (HL-60(TB) leukemia): > 100 µM | TGI (NCI-H522 lung): 25.1 µM | TGI (RPMI-8226 leukemia): > 100 µM | TGI (MDA-MB-435): 56.1 µM | TGI (HT29 colon): 38.8 µM | TGI (ACHN renal): > 100 µM | TGI (OVCAR-3 ovarian): > 100 µM | TGI (SR leukemia): > 100 µM | TGI (786-0 renal): > 100 µM | TGI (OVCAR-8 ovarian): > 100 µM | TGI (EKVX NSCLC): > 100 µM | TGI (SF-539 CNS): 66.2 µM | TGI (SK-OV-3 ovarian): > 100 µM | TGI (IGROV1 ovarian): > 100 µM | TGI (SK-MEL-2 melanoma): > 100 µM | TGI (UACC-257 melanoma): > 100 µM | TGI (SW-620 colon): 50.1 µM | TGI (SNB-19 CNS): > 100 µM | TGI (BT-549 breast): 45.9 µM | TGI (HCT-15 colon): > 100 µM | TGI (HCC-2998 colon): > 100 µM | TGI (SK-MEL-5 melanoma): 54.9 µM | TGI (M14 melanoma): 32.3 µM | TGI (OVCAR-4 ovarian): > 100 µM | TGI (SF-295 CNS): > 100 µM | TGI (SF-268 CNS): > 100 µM | TGI (A549 NSCLC): > 100 µM | TGI (SK-MEL-28 melanoma): > 100 µM | TGI (MCF7 breast): > 100 µM | TGI (PC-3 prostate): > 100 µM | TGI (KM12 colon): 68.1 µM | TGI (TK-10 renal): > 100 µM | TGI (NCI-H226 lung): > 100 µM | TGI (OVCAR-5 ovarian): > 100 µM

NCCCNc1nc2ccccc2c2c(=O)c3cc(F)ccc3sc12
GI50 (SN12C renal): 1.48 µM | TGI (SN12C renal): 2.93 µM | GI50 (UO-31 renal): 1.27 µM | TGI (UO-31 renal): 2.57 µM | GI50 (U251 CNS): 1.64 µM | TGI (U251 CNS): 3.25 µM | GI50 (NCI-H460 lung): 1.65 µM | TGI (NCI-H460 lung): 3.22 µM | GI50 (LOX IMVI melanoma): 1.43 µM | TGI (LOX IMVI melanoma): 2.83 µM | GI50 (MALME-3M melanoma): 1.71 µM | TGI (MALME-3M melanoma): 3.22 µM | GI50 (NCI/ADR-RES ovarian): 1.7 µM | TGI (NCI/ADR-RES ovarian): 3.36 µM | GI50 (NCI-H23 lung): 1.64 µM | TGI (NCI-H23 lung): 3.19 µM | GI50 (CCRF-CEM leukemia): 1.81 µM | TGI (CCRF-CEM leukemia): 3.72 µM | GI50 (UACC-62 melanoma): 1.62 µM | TGI (UACC-62 melanoma): 3.01 µM | GI50 (SNB-75 CNS): 1.31 µM | TGI (SNB-75 CNS): 2.64 µM | GI50 (HOP-62 NSCLC): 1.43 µM | TGI (HOP-62 NSCLC): 3.15 µM | GI50 (RXF 393 renal): 1.42 µM | TGI (RXF 393 renal): 2.74 µM | GI50 (T-47D breast): 1.63 µM | TGI (T-47D breast): 3.58 µM | GI50 (A498 renal): 1.48 µM | TGI (A498 renal): 3.36 µM | GI50 (NCI-H522 lung): 1.64 µM | TGI (NCI-H522 lung): 3.45 µM | GI50 (RPMI-8226 leukemia): 1.77 µM | TGI (RPMI-8226 leukemia): 3.65 µM | GI50 (MDA-MB-435): 1.75 µM | TGI (MDA-MB-435): 3.27 µM | GI50 (HT29 colon): 1.54 µM | TGI (HT29 colon): 3.14 µM | GI50 (ACHN renal): 1.58 µM | TGI (ACHN renal): 2.93 µM | GI50 (OVCAR-3 ovarian): 1.7 µM | TGI (OVCAR-3 ovarian): 3.25 µM | GI50 (SR leukemia): 1.48 µM | TGI (SR leukemia): 4.09 µM | GI50 (786-0 renal): 1.54 µM | TGI (786-0 renal): 3.01 µM | GI50 (EKVX NSCLC): 1.57 µM | TGI (EKVX NSCLC): 3.01 µM | GI50 (SF-539 CNS): 1.71 µM | TGI (SF-539 CNS): 3.1 µM | GI50 (SK-OV-3 ovarian): 1.56 µM | TGI (SK-OV-3 ovarian): 3.31 µM | GI50 (IGROV1 ovarian): 1.42 µM | TGI (IGROV1 ovarian): 2.9 µM | GI50 (SK-MEL-2 melanoma): 1.75 µM | TGI (SK-MEL-2 melanoma): 3.43 µM | GI50 (HCT-116 colon): 1.43 µM | TGI (HCT-116 colon): 2.77 µM | GI50 (UACC-257 melanoma): 1.79 µM | TGI (UACC-257 melanoma): 3.81 µM | GI50 (SW-620 colon): 1.64 µM | TGI (SW-620 colon): 3.27 µM | GI50 (MDA-MB-231 breast): 1.45 µM | TGI (MDA-MB-231 breast): 2.9 µM | GI50 (DU-145 prostate): 1.73 µM | TGI (DU-145 prostate): 3.21 µM | GI50 (BT-549 breast): 1.51 µM | TGI (BT-549 breast): 2.96 µM | GI50 (HCT-15 colon): 1.43 µM | TGI (HCT-15 colon): 2.84 µM | GI50 (HCC-2998 colon): 1.64 µM | TGI (HCC-2998 colon): 3.14 µM | GI50 (CAKI-1 renal): 1.41 µM | TGI (CAKI-1 renal): 2.75 µM | GI50 (SK-MEL-5 melanoma): 1.73 µM | TGI (SK-MEL-5 melanoma): 3.13 µM | GI50 (M14 melanoma): 1.69 µM | TGI (M14 melanoma): 3.11 µM | GI50 (OVCAR-4 ovarian): 1.75 µM | TGI (OVCAR-4 ovarian): 3.4 µM | GI50 (SF-295 CNS): 1.76 µM | TGI (SF-295 CNS): 3.21 µM | GI50 (SF-268 CNS): 1.45 µM | TGI (SF-268 CNS): 3.12 µM | GI50 (A549 NSCLC): 1.59 µM | TGI (A549 NSCLC): 3.48 µM | GI50 (SK-MEL-28 melanoma): 1.79 µM | TGI (SK-MEL-28 melanoma): 3.24 µM | GI50 (MCF7 breast): 1.4 µM | TGI (MCF7 breast): 2.88 µM | GI50 (PC-3 prostate): 1.45 µM | TGI (PC-3 prostate): 2.98 µM | GI50 (KM12 colon): 1.8 µM | TGI (KM12 colon): 3.36 µM | GI50 (HOP-92 NSCLC): 1.31 µM | TGI (HOP-92 NSCLC): 3.33 µM | GI50 (COLO 205 colon): 1.69 µM | TGI (COLO 205 colon): 3.48 µM | GI50 (OVCAR-5 ovarian): 1.61 µM | TGI (OVCAR-5 ovarian): 3.05 µM
